Assay results published in PMC11481871, “Discovery of GuaB inhibitors with efficacy against Acinetobacter baumannii infection” (mBio, 2024).
Converted amounts (≈) assume the structure as drawn. “And” between values parts separate entries of the source, which are not always exact repeats. Identical values can stand only once. Like-named read-outs stand apart in the source and are kept apart here.

Columns and labels:
[1] = system: Acinetobacter baumannii ATCC19606 GuaB mutants; assay: MIC on GuaBi-resistant A. baumannii 19606 guaB mutants; format: cell-based; settings: for MIC: Acinetobacter baumannii; for shifts in MIC conferred by on-target mutations: GuaBi-resistant mutants; for Fold shift in MIC vs parental wild-type / MIC of resistant mutant: from fluctuation assay
[2] = system: A. baumannii ΔadeJ (efflux-defective); assay: microbe, parasite or virus in culture; format: cell-based; settings: Acinetobacter baumannii, read-out: Avg. MIC
[3] = system: Staphylococcus aureus; assay: MIC, CLSI microdilution; format: cell-based; settings: NRS 384 / USA300; Staphylococcus aureus USA300 NRS384; RPMI1640
[4] = system: Mycobacterium tuberculosis H37Rv; assay: MIC, resazurin redox assay; format: cell-based; settings: ATCC 27294 / H37Rv, 192 h, Mycobacterium tuberculosis H37Rv (ATCC27294)
[5] = system: Enterococcus faecalis; assay: MIC, CLSI microdilution; format: cell-based; settings: Enterococcus faecalis (ATCC47077); RPMI1640
[6] = system: Mycobacterium marinum; assay: MIC, CLSI microdilution; format: cell-based; settings: 7H9 + OADC, 48 h
[7] = system: A. baumannii 19606; assay: Neutropenic thigh infection model with i.v. GuaBi; settings: for bacterial load in thigh muscle: neutropenic CD-1 mice, A. baumannii 19606, i.v. infusion with PK boosters, 24 h, high dose groups; for free drug over serum-free MIC at which bactericidal: neutropenic thigh model, A. baumannii
[8] = system: Enterobacter cloacae; assay: MIC, CLSI microdilution; format: cell-based; settings: 20 h; Enterobacter cloacae (ATCC222); M9 + casamino acids + glucose
[9] = system: Acinetobacter baumannii; assay: MIC, CLSI microdilution; format: cell-based; settings: 20 h, M9 + casamino acids + glucose
[10] = system: Mycobacterium avium; assay: MIC, CLSI microdilution; format: cell-based; settings: 336 h; Mycobacterium avium (ATCC25291); 7H9 + OADC, 14 days
[11] = system: carbapenem-resistant A. baumannii clinical isolates; assay: microbe, parasite or virus in culture; format: cell-based; settings: Acinetobacter baumannii
[12] = target: S. aureus GuaB (Staphylococcus aureus, UniProt P99106); assay: GuaB biochemical IC50
Sequence of S. aureus GuaB (P99106 whole entry, the tested form may be a part): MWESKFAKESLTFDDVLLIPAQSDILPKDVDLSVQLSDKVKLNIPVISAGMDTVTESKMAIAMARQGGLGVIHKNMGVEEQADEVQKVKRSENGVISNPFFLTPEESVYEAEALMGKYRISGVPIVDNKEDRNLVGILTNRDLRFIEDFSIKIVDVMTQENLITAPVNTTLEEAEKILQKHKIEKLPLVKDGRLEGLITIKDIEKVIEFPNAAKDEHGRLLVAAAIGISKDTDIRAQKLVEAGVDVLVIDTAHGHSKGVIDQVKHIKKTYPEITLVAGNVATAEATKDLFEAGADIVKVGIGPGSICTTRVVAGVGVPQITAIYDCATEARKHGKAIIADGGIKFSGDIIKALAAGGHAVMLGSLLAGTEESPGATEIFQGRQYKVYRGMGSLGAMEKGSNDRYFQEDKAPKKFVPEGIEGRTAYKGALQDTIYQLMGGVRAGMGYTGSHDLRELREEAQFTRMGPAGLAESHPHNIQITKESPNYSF

[13] = In vivo pharmacokinetic study, 24-h i.v. infusion; parameters: species or system mouse; settings: mice; for AUC(0-t): female, CD-1, mouse, whole blood, iv, read-out: exposure AUC0-24
Experimental: Two female CD-1 mice were given a 750 mg/kg of 24 h i.v. infusion dose of G2. […] Two female CD-1 mice were given a 250 mg/kg of 24-h i.v. infusion dose of G1. Another group of two mice received 250 mg/kg of 24-h i.v. infusion dose of G1 with a 150 mg/kg ABT PO dose of pretreatment at 2 h prior the i.v. infusion. Ten microliters of blood was collected accurately at 0.5, 1, 2, 4, 6, 8, and 24 h after infusion start. Blood samples were then immediately placed into labeled polypropylene micro-centrifuge tubes containing 40 µL of 1.7 mg/mL potassium (K2) EDTA in water, mixed, and then frozen and stored at −70°C until bio-analysis.
G2, G1, ABT, and 4-MP blood concentrations in mouse PK studies were determined by LC-MS/MS. All samples were prepared by protein precipitation. Chromatographic separations were achieved using an ACQUITY CM UPLC system (Waters, Milford, MA) including an ACQUITY BSM solvent delivery system, an ACQUITY SM autosampler, and an ACQUITY CM column oven. For G1, G2, and ABT, an ACQUITY UPLC HSS T3 column (2.1 × 50 mm, 1.8 µm) was used. For 4-MP, an ACQUITY UPLC BEH Amide column (2.1 × 50 mm, 1.7 µm) was used. Gradient elution that contained 0.1% formic acid in water and 0.1% formic acid in acetonitrile was used for G1, ABT, and 4-MP. Gradient elution that contained 0.1% formic acid with 2 mM ammonium formate in water/acetonitrile (vol/vol, 95:5) was used for G2. The LC flow rate was 0.6 mL/min for G1, G2, and ABT, and 0.5 mL/min for 4-MP. The sample injection volume was 1 µL for ABT, G1, and G2, and 2 µL for 4-MP. A QTrap 5500/6500 tandem mass spectrometer (SCIEX, Foster City, CA) with TurboIonSpray interface was operated in positive ionization mode with multiple reaction monitoring (MRM) for LC-MS/MS analysis. The mass spectrometer was operated at unit mass resolution for both Q1 and Q3 quadrupoles. The precursor to product ion transitions of analytes are presented as Q1/Q3 ratios for each compound: 4-MP (83.0/56.1), G1 (383.1/197.1), G2 (399.1/171.0), and ABT (135.0/80.1). The standard curves cover the ranges of 0.005 µg/mL–11.7 µg/mL, 0.005 µg/mL–33.4 µg/mL, 0.05 µg/mL–334 µg/mL, and 1.37 µg/mL–334 µg/mL for G1, G2, ABT, and 4-MP, respectively.

[14] = ATCC19606, read-out: A.b.19606 Average CLSI MIC (n=3), guaB allele P25A, M9 media
[15] = ATCC19606, read-out: A.b.19606 Average CLSI MIC (n=3), guaB allele P25S, M9 media
[16] = ATCC19606, read-out: A.b.19606 Average CLSI MIC (n=3), guaB allele Y445C, M9 media
[17] = ATCC19606, read-out: A.b.19606 Average CLSI MIC (n=3), guaB allele Y445N, M9 media
[18] = ATCC19606, read-out: A.b.19606 Average CLSI MIC (n=3), guaB allele Y445S, M9 media
[19] = ATCC19606, read-out: MIC of resistant mutant, resistance allele Y445S, from fluctuation assay

Structure (SMILES)	MIC [1, 14] [µM]	MIC [1, 15] [µM]	MIC [1, 16] [µM]	MIC [1, 17] [µM]	MIC [1, 18] [µM]	MIC [1, 19] [µM]	GuaBi CLSI MIC fold change from parent strain ([1]; guaB allele P25A)	GuaBi CLSI MIC fold change from parent strain ([1]; guaB allele P25S)	GuaBi CLSI MIC fold change from parent strain ([1]; guaB allele Y445C)	GuaBi CLSI MIC fold change from parent strain ([1]; guaB allele Y445N)	GuaBi CLSI MIC fold change from parent strain ([1]; guaB allele Y445S)	MIC [2] [µM]	MIC [3] [µM]	MIC [4] [µM]	MIC [5] [µM]	MIC [6] [µM]	MIC [8] [µM]	MIC [9] [µM]	MIC [10] [µM]	IC50 [12] [nM]	further results
C[C@H](Nc1ccc2ncc3c(c2c1)CCOC3)C(=O)Nc1ccc(Cl)nc1 [G1, (2S)-N-(6-chloro-3-pyridyl)-2-(2,4-dihydro-1H-pyrano[3,4-c]quinolin-9 ylamino)propanamide]	6.3 (≈ 2.41 µg/mL)	2.6 (≈ 0.995 µg/mL)	1.6 (≈ 0.613 µg/mL)	41.7 (≈ 16 µg/mL)	> 100	50	12	5	3	80	>200	0.016 (≈ 0.00613 µg/mL)	0.1 (≈ 0.0383 µg/mL)	0.3 (≈ 0.115 µg/mL)	0.2 (≈ 0.0766 µg/mL)	0.01	> 100	0.5	0.8	0.38	MIC ([1]; ATCC19606, read-out: MIC of resistant mutant, resistance allele Y445N, from fluctuation assay): 50 µM; shifts in MIC conferred by on-target mutations [1]: ≥ 32 fold; Fold shift in MIC vs parental wild-type ([1]; resistance allele Y445N): 64, 64 and 64; MIC of resistant mutant ([1]; resistance allele Y445N): 50 µM; Fold shift in MIC vs parental wild-type ([1]; resistance allele Y445S): 64, 64; bacterial load in thigh muscle [7]: reduced the bacterial load in thigh muscle compared to pre-treatment; free drug over serum-free MIC at which bactericidal [7]: above 2 × Fu/MIC; MIC50 [11]: 3.1 µM (≈ 1.19 µg/mL); MIC90 [11]: 8 µM (≈ 3.06 µg/mL); AUC(0-t) ([13]; 24-h i.v. infusion 250 mg/kg, co-administered 150 mg/kg ABT): 692 µM·h; exposure higher than without co-administration with ABT ([13]; 250 mg/kg 24-h i.v. infusion): fourfold
C[C@H](Nc1ccc2ncc(CO)cc2c1)C(=O)Nc1ccc(Cl)c(N(C)C)c1 [G2, (2S)-N-[4-chloro-3-(dimethylamino)phenyl]-2-[[3-(hydroxymethyl)-6-quinolyl]amino]propanamide]	66.7 (≈ 26.6 µg/mL)	66.7 (≈ 26.6 µg/mL)	50 (≈ 19.9 µg/mL)	> 100	> 100	100	16	16	12	>25	>25	0.04 (≈ 0.016 µg/mL)	1.6 (≈ 0.638 µg/mL)	2.5 (≈ 0.997 µg/mL)	0.3 (≈ 0.12 µg/mL)	0.1	> 100	3.1	12.5	3.4	MIC ([1]; ATCC19606, read-out: MIC of resistant mutant, resistance allele P25A, from fluctuation assay): 50 µM; MIC ([1]; ATCC19606, read-out: MIC of resistant mutant, resistance allele P25S, from fluctuation assay): 50 µM; MIC ([1]; ATCC19606, read-out: MIC of resistant mutant, resistance allele Y445C, from fluctuation assay): 50 µM; shifts in MIC conferred by on-target mutations [1]: ≥ 32 fold; Fold shift in MIC vs parental wild-type ([1]; resistance allele P25A): 32, 32, 32; Fold shift in MIC vs parental wild-type ([1]; resistance allele P25S): 32, 32, 32 and 32; MIC of resistant mutant ([1]; resistance allele P25S): 50 µM; Fold shift in MIC vs parental wild-type ([1]; resistance allele Y445C): 32, 32, 32 and 64; MIC of resistant mutant ([1]; resistance allele Y445C): 100 µM; Fold shift in MIC vs parental wild-type ([1]; resistance allele Y445S): 64; bacterial load in thigh muscle [7]: reduced the bacterial load in thigh muscle compared to pre-treatment; free drug over serum-free MIC at which bactericidal [7]: 5 × Fu/MIC; MIC50 [11]: 6.25 µM (≈ 2.49 µg/mL); MIC90 [11]: 16 µM (≈ 6.38 µg/mL); AUC(0-t) ([13]; 24-h i.v. infusion 750 mg/kg, co-administered 150 mg/kg ABT and 100 mg/kg 4-MP): 21300 µM·h; exposure higher than without co-administration with ABT and 4-MP ([13]; 750 mg/kg 24-h i.v. infusion): 100 fold
C[C@@H](Oc1ccc2ncc3c(c2c1)CCOC3)c1cncc(-c2nc(Cl)c[nH]2)c1 [G8, (R)-9-[1-[5-(4-chloro-1H-imidazol-2-yl)-3-pyridyl]ethoxy]-2,4-dihydro-1H-pyrano[3,4 c]quinoline]	0.8 (≈ 0.325 µg/mL)	0.6 (≈ 0.244 µg/mL)	0.2 (≈ 0.0814 µg/mL)	1.8 (≈ 0.732 µg/mL)	8.3 (≈ 3.38 µg/mL)		3.3	2.5	1	7	32	0.01 (≈ 0.00407 µg/mL)	0.01 (≈ 0.00407 µg/mL)	0.2 (≈ 0.0814 µg/mL)	0.01 (≈ 0.00407 µg/mL)	0.03	> 100	1.3	0.04	0.21	
